For this experiment, the system named is T. cruzi-infected H9C2 cardiomyocytes, high-content imaging. In words: anti-T. cruzi activity in infected cardiomyocytes – imaging, H9C2 host cardiomyocytes, host toxicity (AID 1159565).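 Note: infected cells incubated 72 h after plating.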
Setting [1] is: measured here: H9C2 host cell toxicity.
[2] abbreviates: measured here: amastigotes per cell.

Each structure is given as a SMILES string. Activity calls are given as the source filed them. The rule behind the calls is not given here.

On to `CC(C)(C)Nc1nc(Nc2ccc3c(c2)CS(=O)(=O)C3)nc2[nH]ccc12`, for which the IC50 was 32 µM. The same compound showed an IC50 under setting [1] of 1 µM. For the same compound, the IC50 under setting [2] was 20 µM.
In the same order, the values of `Cc1cc(C)c(C#N)c(SCC(=O)c2ccc3c(c2)OCO3)n1` are 0.79 µM, more than 50 µM and 0.4 µM.
Turning to `CCN(C)Cc1ccc(N2CCC(NS(=O)(=O)c3ccc4c(c3)CCO4)CC2)nc1`, the half-maximal inhibitory concentration (IC50) is 1.3 µM. For the same compound, under setting [1], the half-inhibitory concentration (IC50) was more than 50 µM. The same compound showed an IC50 under setting [2] of 1 µM.
As for `CN(CCOc1ccc(Cl)cc1)Cc1nc(N)nc(N(C)C)n1`, the half-inhibitory concentration (IC50) was 10 µM. Besides, the half-inhibitory concentration (IC50) under setting [1] is more than 50 µM. In addition, the IC50 under setting [2] is 7.9 µM.
In the same order, the values of `CC(C)Nc1nc(Cl)nc2ccccc12` are 10 µM, 7.9 µM and 4 µM.
Turning to `Cc1nc(C(=O)Nc2ccc3c(c2)OCO3)nn1-c1ccc(Cl)cc1`, the IC50 was 1.6 µM. The compound also had an IC50 under setting [1] of more than 50 µM. Under setting [2], this compound registered a 50% inhibitory concentration (IC50) of 1 µM.
As for `O=C(NCCNc1noc(-c2ccc([N+](=O)[O-])cc2)n1)c1ccc(Cl)cc1`, the IC50 is > 50 µM (inactive). Further, under setting [1], the half-inhibitory concentration (IC50) was more than 50 µM. The compound also showed a half-maximal inhibitory concentration (IC50) under setting [2] of 1.3 µM.
In the same order, the values of `COc1cc(Cl)c(C)cc1NC(=O)c1ccc([N+](=O)[O-])s1` are 0.63 µM, 2.5 µM and 0.5 µM.
For `O=C(NC1C(=O)N(c2ccccc2)C1c1cccnc1)c1ccc(Cl)s1` (stereo not drawn), the IC50 was 0.05 µM. This compound had an IC50 under setting [1] of more than 50 µM. This compound also had an IC50 under setting [2] of 0.04 µM.
In the same order, the values of `Cn1nc([N+](=O)[O-])nc1Oc1ccc(C(=O)c2ccccc2)cc1` are 0.32 µM, more than 50 µM and 0.13 µM.
In the same order, the values of `NC(=O)c1cc(F)ccc1Nc1nc(NC2CCC(O)CC2)ncc1Cl` (stereo not drawn) are 5 µM, 1.6 µM and 1.6 µM.
In the same order, the values of `Cn1nccc1NC(=O)Cn1ccc(-c2ccncc2)n1` are > 50 µM (inactive), more than 50 µM and more than 50 µM.
Take `O=C(CSc1nnc(-c2ccc3c(c2)OCO3)o1)N(Cc1ccco1)CC(F)(F)F`: the IC50 was 3.2 µM. Besides, under setting [1], the half-maximal inhibitory concentration (IC50) is more than 50 µM. Under setting [2], the IC50 is 2.5 µM.
In the same order, the values of `Cc1cc(Oc2cc(Cl)c(Cl)cc2Cl)n2ncnc2n1` are 25 µM, 7.9 µM and 10 µM.
Consider `O=C(Nc1cccc(Cl)c1)Nc1ccc([N+](=O)[O-])cc1Cl`, for which the 50% inhibitory concentration (IC50) was 2 µM. Further, the half-maximal inhibitory concentration (IC50) under setting [1] is 4 µM. The compound further came in with an IC50 under setting [2] of 1.6 µM.
In the same order, the values of `CC(C)CC(=O)Nc1cc(C2CC2)nn1-c1nc2c(c(=O)[nH]1)CCCC2` are 0.5 µM, 2.5 µM and 0.13 µM.
Turning to `CCc1cccc(CC)c1-n1c(SCC(=O)NC(=O)NCc2ccco2)nnc1-c1cccnc1`, the half-inhibitory concentration (IC50) was 13 µM. The compound also had an IC50 under setting [1] of more than 50 µM. Further, the IC50 under setting [2] was determined as 7.9 µM.
For the compound `CCn1c(NC(=O)Cc2ccc(F)cc2)nc2ccccc21`, the IC50 was 7.9 µM. This compound also showed an IC50 under setting [1] of more than 50 µM. This compound showed a half-maximal inhibitory concentration (IC50) under setting [2] of 4 µM.
In the same order, the values of `O=C(Cc1ccc2c(c1)CCC2)Nc1n[nH]c(-c2ccccn2)n1` are 10 µM, more than 50 µM and 10 µM.
In the same order, the values of `N#Cc1cc([N+](=O)[O-])ccc1NC1CCCCCC1` are 2 µM, more than 50 µM and 1.3 µM.
As to `COc1ccc2ncc(F)c(CCN3CC[C@@H](NC(=O)c4cc5c(s4)CCC5)[C@@H](O)C3)c2n1`, the half-maximal inhibitory concentration (IC50) was 0.13 µM. The IC50 under setting [1] stood at 0.13 µM. Further, under setting [2], the 50% inhibitory concentration (IC50) came out at 0.05 µM.
Take `CNC(=O)Oc1ccc(C(=O)NCc2ccccc2)cc1OC(=O)NC`: the half-maximal inhibitory concentration (IC50) was 40 µM. Under setting [1], the IC50 is more than 50 µM. Moreover, the IC50 under setting [2] was found to be 40 µM.
Take `CCCCNc1nccc(-c2c(-c3ccc(F)cc3)nn3c(N4CCOCC4)cccc23)n1`: the IC50 was 3.2 µM. The IC50 under setting [1] was more than 50 µM. The compound also displayed a 50% inhibitory concentration (IC50) under setting [2] of 1 µM.
On to `NCc1ccc2c(Cl)cc(Cl)c(O)c2n1`, for which the half-maximal inhibitory concentration (IC50) is 2 µM. The compound also yielded an IC50 under setting [1] of 6.3 µM. Under setting [2], this compound came in with a half-inhibitory concentration (IC50) of 1.3 µM.
Turning to `CC(C)(C)C(Cn1ccnc1)NC(=O)c1ccc2nc(C3CC3)oc2c1` (stereo not drawn), the IC50 is 0.1 µM. Under setting [1], this compound returned an IC50 of more than 50 µM. Under setting [2], the IC50 stood at 0.079 µM.
As for `Cc1ccc2onc(Nc3ccnc(Nc4cccc(S(C)(=O)=O)c4)n3)c2c1`, the IC50 was 0.63 µM. This compound also yielded a half-maximal inhibitory concentration (IC50) under setting [1] of 5 µM. This compound came in with a half-inhibitory concentration (IC50) under setting [2] of 0.4 µM.
In the same order, the values of `CC1CCCCN1C(=O)NCCc1coc(-c2ccc(F)cc2)n1` (stereo not drawn) are 0.32 µM, more than 50 µM and 0.32 µM.
In the same order, the values of `COc1ccccc1C=CCN1C[C@H]2CCC[C@@H](C1)C2(O)c1cccnc1` (stereo partly drawn) are 0.04 µM, more than 50 µM and 0.04 µM.
In the same order, the values of `O=C(c1cc2cc(Cl)ccc2[nH]1)N1CCCCC1c1cccnc1` (stereo not drawn) are 0.13 µM, 32 µM and 0.13 µM.
Consider `O=C(Nc1nc(-c2ccccn2)cs1)c1ccccc1-n1cnnn1`, for which the half-maximal inhibitory concentration (IC50) is 3.2 µM. This compound returned an IC50 under setting [1] of 5 µM. Also, under setting [2], the IC50 amounted to 2 µM.
In the same order, the values of `COc1cc(OC)cc(C(NS(=O)(=O)c2ccc(Cl)c(C(F)(F)F)c2)c2nccn2C)c1` (stereo not drawn) are 6.3 µM, 10 µM and 3.2 µM.
In the same order, the values of `N#Cc1ccccc1S(=O)(=O)N1CCN(C(=O)CNC(=O)c2ccc3c(c2)OCO3)CC1` are 1 µM, more than 50 µM and 0.63 µM.
In the same order, the values of `Cc1cc(NC(=O)CC2CCCCC2)n(-c2nc3c(c(=O)[nH]2)CCC3)n1` are 0.32 µM, 4 µM and 0.13 µM.
For `CN(CC1CCCO1)S(=O)(=O)c1ccc(C(=O)Nc2nc(-c3ccccn3)cs2)cc1` (stereo not drawn), the half-maximal inhibitory concentration (IC50) was 2 µM. The compound further had an IC50 under setting [1] of 20 µM. Under setting [2], this compound yielded an IC50 of 1.3 µM.
Turning to `CN(C)c1ncc(-c2cncn2CCOc2ccc(Cl)cc2)cn1`, the half-inhibitory concentration (IC50) is 0.25 µM. Besides, under setting [1], the IC50 was more than 50 µM. Under setting [2], this compound displayed an IC50 of 0.2 µM.
In the same order, the values of `C[C@@H](Oc1cc(-n2cnc3ccc(O[C@H]4CCNC4)cc32)sc1C(N)=O)c1ccccc1Cl` are 13 µM, 0.63 µM and 6.3 µM.
In the same order, the values of `Cc1cc(NC(=O)C2CC2)ccc1OC1CCN(Cc2ccco2)CC1` are 40 µM, 40 µM and 20 µM.
On to `CNC(=O)C1Cc2ccccc2N1C(=O)Cc1ccccc1` (stereo not drawn), for which the IC50 was > 50 µM (inactive). Under setting [1], this compound displayed a half-inhibitory concentration (IC50) of more than 50 µM. Under setting [2], the half-maximal inhibitory concentration (IC50) is more than 50 µM.
Turning to `COc1ccc(CNc2nsc3ccccc23)cc1OC`, the IC50 is 25 µM. Moreover, under setting [1], the IC50 was more than 50 µM. In addition, the IC50 under setting [2] was 20 µM.
As for `O=C1COC(c2ccccc2)(c2ccccc2)CN1C1CCN(Cc2ccc(-n3ccnc3)cc2)CC1`, the IC50 is 2 µM. Moreover, under setting [1], the half-maximal inhibitory concentration (IC50) was found to be 32 µM. The compound further displayed an IC50 under setting [2] of 0.5 µM.
In the same order, the values of `O=C(CN(c1cccc(C(F)(F)F)c1)S(=O)(=O)c1ccc(Cl)cc1)NCc1ccc(F)c(F)c1` are 0.79 µM, more than 50 µM and 0.5 µM.
In the same order, the values of `Cc1nn(C2CCS(=O)(=O)C2)c(C)c1CN(C)C(=O)C=Cc1sc2ccccc2c1Cl` (stereo not drawn) are 0.5 µM, more than 50 µM and 0.32 µM.
In the same order, the values of `Cc1ccc(C)c(CN2C(=O)NC3(CCc4ccccc43)C2=O)c1` (stereo not drawn) are 20 µM, more than 50 µM and 7.9 µM.
For `CN1CCN(c2nc(-c3ccc(Cl)cc3)c3c(N)n(C)nc3n2)CC1`, the half-inhibitory concentration (IC50) was 1 µM. Besides, the half-maximal inhibitory concentration (IC50) under setting [1] came to 25 µM. Moreover, under setting [2], the half-maximal inhibitory concentration (IC50) came out at 0.79 µM.
In the same order, the values of `CC(C)n1c(-c2nonc2N)nc2cccc(OCCN3CCCC3)c21` are 16 µM, 32 µM and 25 µM.
In the same order, the values of `COCc1cnc2c(c1SCc1c(F)cccc1Cl)c(=O)n(C)c(=O)n2C` are 4 µM, more than 50 µM and 2.5 µM.
With `Cc1nn(-c2nc(N)nc(-c3ccccn3)n2)c(C)c1Cc1ccccc1`, the IC50 was 3.2 µM. The compound further registered a 50% inhibitory concentration (IC50) under setting [1] of 20 µM. The same compound had a concentration for half-maximal inhibition (IC50) under setting [2] of 2 µM.
In the same order, the values of `COc1ccc(-c2csc(NC(=O)c3ccc([N+](=O)[O-])s3)n2)cc1OC` are 0.1 µM, 6.3 µM and 0.079 µM.
In the same order, the values of `Cc1nn2c(NCCCO)c3c(nc2c1-c1cccs1)CCC3` are 50 µM, more than 50 µM and 5 µM.
In the same order, the values of `CCN(Cc1nc2ccc(C(=O)N3CCN(c4ncccn4)CC3)cc2[nH]1)C1CCCc2cccnc21` (stereo not drawn) are 13 µM, 16 µM and 2 µM.
As to `CCN(CC)S(=O)(=O)c1ccc(OC)c(NC(=O)c2ccc([N+](=O)[O-])s2)c1`, the IC50 was 0.16 µM. The same compound showed an IC50 under setting [1] of more than 50 µM. In addition, the IC50 under setting [2] was determined as 0.13 µM.
As for `CCCC(=O)N(Cc1ccccn1)c1nc2ccccc2s1`, the IC50 was 0.1 µM. The compound further displayed a concentration for half-maximal inhibition (IC50) under setting [1] of more than 50 µM. The compound further yielded an IC50 under setting [2] of 0.079 µM.
In the same order, the values of `O=c1oc2ccccc2n1C1CCN(Cc2ccccc2-c2cccnc2)CC1` are 0.32 µM, more than 50 µM and 0.4 µM.
In the same order, the values of `N#Cc1ccc(S(=O)(=O)N2CCC3(CCN(c4ccccc4)C3=O)CC2)cc1` are 1 µM, more than 50 µM and 0.63 µM.
In the same order, the values of `CNC(=O)C1Cc2ccccc2N1C(=O)Cc1ccc(F)cc1` (stereo not drawn) are > 50 µM (inactive), more than 50 µM and more than 50 µM.
In the case of `O=C(Nc1ccccc1C(=O)Nc1ccccn1)c1ccco1`, the IC50 is > 50 µM (inactive). Under setting [1], this compound gave an IC50 of more than 50 µM. Besides, the half-inhibitory concentration (IC50) under setting [2] was more than 50 µM.
